Assay results published in patent US20060063759A1, “Tricyclic steroid hormone nuclear receptor modulators” (priority 2002, published 2006).

Assays:
human MR = target: T1, human MR (Homo sapiens, UniProt P08235); assay: Mineralocorticoid Receptor Binding Assay ([3H]-aldosterone); settings: [3H]-aldosterone binding, human MR expressed in Sf9 cells; read-out: MR Ki
T1 construct: The full length human MR gene is cloned from a human kidney or human brain cDNA library; His tag from the pAcHLT vector (own knowledge); made in house; host or cells: Sf9 insect cells (baculovirus, pAcHLT transfer vector)
T1 sequence (P08235 1-984): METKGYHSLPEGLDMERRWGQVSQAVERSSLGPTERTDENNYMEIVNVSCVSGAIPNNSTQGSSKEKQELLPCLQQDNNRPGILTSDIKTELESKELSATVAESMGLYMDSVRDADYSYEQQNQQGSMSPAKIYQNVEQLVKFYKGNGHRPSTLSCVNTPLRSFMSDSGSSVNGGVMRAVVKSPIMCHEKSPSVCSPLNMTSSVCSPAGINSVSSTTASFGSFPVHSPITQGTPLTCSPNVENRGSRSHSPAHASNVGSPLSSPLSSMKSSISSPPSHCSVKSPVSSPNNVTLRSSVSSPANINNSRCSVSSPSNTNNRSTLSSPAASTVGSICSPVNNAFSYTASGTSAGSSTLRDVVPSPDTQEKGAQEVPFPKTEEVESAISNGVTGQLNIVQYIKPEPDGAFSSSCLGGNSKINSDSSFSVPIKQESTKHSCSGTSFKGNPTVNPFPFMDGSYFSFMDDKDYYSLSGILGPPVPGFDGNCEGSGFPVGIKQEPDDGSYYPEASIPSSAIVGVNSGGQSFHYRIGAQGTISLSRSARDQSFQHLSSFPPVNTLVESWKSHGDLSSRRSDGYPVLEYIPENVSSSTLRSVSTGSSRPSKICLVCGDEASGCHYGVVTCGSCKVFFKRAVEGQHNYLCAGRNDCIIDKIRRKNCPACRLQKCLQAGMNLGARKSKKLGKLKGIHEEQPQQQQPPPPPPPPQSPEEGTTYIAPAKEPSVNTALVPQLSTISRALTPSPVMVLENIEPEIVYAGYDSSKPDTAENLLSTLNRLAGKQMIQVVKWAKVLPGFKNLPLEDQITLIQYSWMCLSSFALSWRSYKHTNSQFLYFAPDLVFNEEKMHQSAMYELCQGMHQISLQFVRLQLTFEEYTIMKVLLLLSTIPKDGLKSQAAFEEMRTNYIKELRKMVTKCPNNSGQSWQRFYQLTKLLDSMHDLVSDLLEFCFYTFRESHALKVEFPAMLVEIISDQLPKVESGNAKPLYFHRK
Summary of the method: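 Receptor source: freeze-thaw lysate of baculovirus-infected Sf9 cells carrying full-length human MR, 20-25 μg protein. Incubation ~16 h at 4 °C with shaking, pH 7.5 buffer containing 30 mM sodium molybdate and 10% glycerol.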

glucocorticoid receptor = target: T2, glucocorticoid receptor (Homo sapiens, UniProt P04150); assay: Glucocorticoid Receptor Binding Assay ([3H]-dexamethasone, A549 cell extract); settings: [3H]-dexamethasone binding, read-out: GR Ki
T2 construct: containing 50-200 ug of A549 cell extract and 1.86 nM [^3H]-dexamethasone; host or cells: A549 human lung epithelial cells (sonicated cell extract)
T2 sequence (P04150 1-777): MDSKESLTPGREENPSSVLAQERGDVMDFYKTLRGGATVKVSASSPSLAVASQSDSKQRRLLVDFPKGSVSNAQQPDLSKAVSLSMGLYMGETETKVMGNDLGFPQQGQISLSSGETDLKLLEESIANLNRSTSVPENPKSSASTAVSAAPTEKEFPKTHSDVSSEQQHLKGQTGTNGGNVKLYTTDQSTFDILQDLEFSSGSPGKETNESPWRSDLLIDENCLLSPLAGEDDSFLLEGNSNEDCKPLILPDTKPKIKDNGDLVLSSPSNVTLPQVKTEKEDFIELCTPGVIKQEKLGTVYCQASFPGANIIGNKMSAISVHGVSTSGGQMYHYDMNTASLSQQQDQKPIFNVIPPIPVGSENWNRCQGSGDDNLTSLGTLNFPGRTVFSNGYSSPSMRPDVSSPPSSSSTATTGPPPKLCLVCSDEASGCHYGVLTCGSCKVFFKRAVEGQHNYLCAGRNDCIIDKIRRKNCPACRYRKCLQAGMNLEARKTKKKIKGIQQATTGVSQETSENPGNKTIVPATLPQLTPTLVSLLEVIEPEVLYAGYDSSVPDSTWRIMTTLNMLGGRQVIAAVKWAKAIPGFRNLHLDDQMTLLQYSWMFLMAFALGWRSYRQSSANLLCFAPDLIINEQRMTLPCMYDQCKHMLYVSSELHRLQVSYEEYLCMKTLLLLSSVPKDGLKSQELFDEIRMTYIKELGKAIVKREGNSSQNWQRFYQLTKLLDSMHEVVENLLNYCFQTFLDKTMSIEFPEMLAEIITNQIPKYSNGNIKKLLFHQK
Summary of the method: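 Displacement of [3H]-dexamethasone (1.86 nM) from glucocorticoid receptor in sonicated A549 lung epithelial cell extracts, 16 h at 4 °C, pH 7.2 molybdate-containing buffer. Bound radioactivity was scintillation-counted after charcoal/dextran stripping of free ligand.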

SMILES	Ki (human MR) [nM]	Ki (glucocorticoid receptor) [nM]
Cc1ccc2c(c1)CCc1ccccc1C2=Cc1cccc(NS(C)(=O)=O)c1 [Example 302]	< 500	< 500
Cc1cccc2c1CCc1ccccc1C2=Cc1cccc(NS(C)(=O)=O)c1 [Example 303]	< 500	< 500
Cc1cccc2c1C(=Cc1cccc(NS(C)(=O)=O)c1)c1ccccc1CC2 [Example 304]	< 500	< 500
Cc1ccc2c(c1)C(=Cc1ccc(NS(C)(=O)=O)cc1)c1ccccc1CC2 [Example 305]	< 500	< 1000
CS(=O)(=O)Nc1cccc(/C=C2/c3ccccc3CCc3cc(-c4ccccc4)ccc32)c1 [Example 306]	< 500	< 1000
Cc1cccc2c1CCc1ccccc1C2=Cc1ccc(NS(C)(=O)=O)cc1 [Example 307]	< 500	< 1000
CS(=O)(=O)Nc1cccc(/C=C2\c3ccccc3CCc3cc(-c4ccccc4)ccc32)c1 [Example 308]	< 500	< 10000
Cc1ccc2c(c1)CCc1ccccc1C2=Cc1ccc(NS(C)(=O)=O)cc1 [Example 309]	< 500	< 1000
Cc1cccc2c1C(=Cc1ccc(NS(C)(=O)=O)cc1)c1ccccc1CC2 [Example 310]	< 500	< 1000
Cc1cccc2c1CCc1ccccc1/C2=C/c1cccc(NS(C)(=O)=O)c1 [Example 311]	< 500	< 500
Cc1cccc2c1CCc1ccccc1/C2=C\c1cccc(NS(C)(=O)=O)c1 [Example 312]	< 500	< 500
Cc1cccc2c1/C(=C\c1cccc(NS(C)(=O)=O)c1)c1ccccc1CC2 [Example 314]	< 500	< 500
Cc1cccc2c1CCc1ccccc1/C2=C/c1ccc(NS(C)(=O)=O)cc1 [Example 315]	< 500	< 10000
Cc1cccc2c1CCc1ccccc1/C2=C\c1ccc(NS(C)(=O)=O)cc1 [Example 316]	< 500	< 500
Cc1ccc2c(c1)CCc1ccccc1/C2=C/c1ccc(NS(C)(=O)=O)cc1 [Example 317]	< 500	< 10000
Cc1ccc2c(c1)CCc1ccccc1/C2=C\c1ccc(NS(C)(=O)=O)cc1 [Example 318]	< 500	< 1000
CSc1cccc2c1CCc1ccccc1C2=Cc1cccc(NS(C)(=O)=O)c1 [Example 319]	< 500	< 500
CSc1ccc2c(c1)C(=Cc1cccc(NS(C)(=O)=O)c1)c1ccccc1CC2 [Example 320]	< 500	< 500
CS(=O)(=O)Nc1cccc(C=C2c3ccccc3CCc3ccc(S(C)(=O)=O)cc32)c1 [Example 321]	< 500	< 500
CSc1ccc2c(c1)/C(=C\c1cccc(NS(C)(=O)=O)c1)c1ccccc1CC2 [Example 322]	< 500	< 500
CS(=O)(=O)Nc1cccc(/C=C2/c3ccccc3CCc3ccc(S(C)(=O)=O)cc32)c1 [Example 323]	< 500	< 500
Cc1ccc2c(c1)CCc1cc(C)ccc1C2=Cc1cccc(NS(C)(=O)=O)c1 [Example 325]	< 500	< 500
Cc1ccc2c(c1)CCc1ccccc1/C2=C/c1cccc(NS(C)(=O)=O)c1 [Example 326]	< 500	< 500
Cc1ccc2c(c1)CCc1ccccc1/C2=C\c1cccc(NS(C)(=O)=O)c1 [Example 327]	< 500	< 500

SMILES	Ki (human MR) [nM]	Ki (glucocorticoid receptor) [nM]
CS(=O)(=O)Nc1cccc(C=C2c3ccccc3CCc3cc(OCCc4ccccc4)ccc32)c1 [Example 330]	< 500	< 500
COc1ccc2c(c1)CCc1cc(OC)ccc1C2=Cc1ccc(OCCN2CCCCC2)cc1 [Example 333]	< 500	< 500
Oc1cccc(/C=C2/c3ccccc3CCc3cc(C(F)F)ccc32)c1 [Example 334]	< 500	< 500
Oc1cccc(/C=C2\c3ccccc3CCc3cc(C(F)F)ccc32)c1 [Example 335]	< 500	< 500
N#Cc1ccc(C=C2c3ccccc3CCc3cc(F)ccc32)cc1F [Example 336]	< 500	< 10000
CS(=O)(=O)Nc1ccc2c(c1)CCc1ccccc1/C2=C\c1cccc(O)c1 [Example 338]	< 500	< 1000
CS(=O)(=O)Nc1cccc(/C=C2\c3ccccc3CCc3cc(NS(C)(=O)=O)ccc32)c1 [Example 339]	< 500	< 500
N#Cc1ccc2c(c1)CCc1ccccc1/C2=C/c1cccc(O)c1 [Example 340]	< 500	< 500
N#Cc1ccc2c(c1)CCc1ccccc1/C2=C\c1cccc(O)c1 [Example 341]	< 500	< 500
CS(=O)(=O)Nc1cccc(/C=C2/c3ccccc3CCc3cc(C#N)ccc32)c1 [Example 342]	< 500	< 500
CS(=O)(=O)Nc1cccc(/C=C2\c3ccccc3CCc3cc(-c4nn[nH]n4)ccc32)c1 [Example 343]	< 1000	< 500
CS(=O)(=O)Nc1cccc(C=C2c3ccccc3CCc3cc(F)cc(F)c32)c1 [Example 344]	< 500	< 500
CS(=O)(=O)NCc1ccc(/C=C2/c3ccccc3CCc3cc(Cl)ccc32)cc1 [Example 345]	< 500	< 10000
CS(=O)(=O)NCc1ccc(/C=C2\c3ccccc3CCc3cc(Cl)ccc32)cc1 [Example 346]	< 500	< 10000
COc1ccc2c(c1)/C(=C/c1cccc(NS(C)(=O)=O)c1)c1ccccc1CC2 [Example 347]	< 500	< 500
COc1ccc2c(c1)/C(=C\c1cccc(NS(C)(=O)=O)c1)c1ccccc1CC2 [Example 348]	< 500	< 500
COc1ccc2c(c1)[C@@H](Cc1cccc(NS(C)(=O)=O)c1)c1ccccc1CC2 [Example 349]	< 500	< 500
CS(=O)(=O)Nc1cccc(/C=C2/c3ccccc3CCc3ccc(O)cc32)c1 [Example 350]	< 500	< 500
COc1ccc2c(c1)CCc1ccccc1[C@@H]2Cc1cccc(NS(C)(=O)=O)c1 [Example 351]	< 500	< 500
CS(=O)(=O)Nc1cccc(/C=C2\c3ccccc3CCc3ccc(O)cc32)c1 [Example 352]	< 500	< 500
COc1cccc2c1C(=Cc1cccc(NS(C)(=O)=O)c1)c1ccccc1CC2 [Example 353]	< 500	< 500
CS(=O)(=O)Nc1cccc(/C=C2\c3ccccc3CCc3cc(F)ccc32)c1 [Example 355]	< 500	< 500
CS(=O)(=O)Nc1cccc(C=C2c3ccc(F)cc3CCc3cc(F)ccc32)c1 [Example 360]	< 500	< 1000
